In brackets after ≈: the same amount, converted by molar mass.
How the values were obtained:
Type in all cases: functional
Candida albicans = experiment: Antifungal activity against Candida albicans MTCC 227 after 48 hr by broth microdilution method; conditions: MTCC 227, 48 h
Aspergillus fumigatus = experiment: Antifungal activity against Aspergillus fumigatus MTCC 3008 after 48 hr by broth microdilution method; conditions: MTCC 3008, 48 h
Vibrio cholerae = experiment: Antibacterial activity against Vibrio cholerae MTCC 3906 after 24 hr by broth microdilution method; conditions: MTCC 3906, 24 h
Salmonella typhi = experiment: Antibacterial activity against Salmonella enterica subsp. enterica serovar Typhi MTCC 98 after 24 hr by broth microdilution method; conditions: MTCC 98, 24 h
Escherichia coli = experiment: Antibacterial activity against Escherichia coli MTCC 443 after 24 hr by broth microdilution method; conditions: MTCC 443, 24 h
Streptococcus pneumoniae = experiment: Antibacterial activity against Streptococcus pneumoniae MTCC 1936 after 24 hr by broth microdilution method; conditions: MTCC 1936, 24 h
Clostridium tetani = experiment: Antibacterial activity against Clostridium tetani MTCC 449 after 24 hr by broth microdilution method; conditions: MTCC 449, 24 h
Bacillus subtilis = experiment: Antibacterial activity against Bacillus subtilis MTCC 441 after 24 hr by broth microdilution method; conditions: MTCC 441, 24 h

| Structure (SMILES) | MIC (Candida albicans) [mg/L] | MIC (Aspergillus fumigatus) [mg/L] | MIC (Vibrio cholerae) [mg/L] | MIC (Salmonella typhi) [mg/L] | MIC (Escherichia coli) [mg/L] | MIC (Streptococcus pneumoniae) [mg/L] | MIC (Clostridium tetani) [mg/L] | MIC (Bacillus subtilis) [mg/L] |
| --- | --- | --- | --- | --- | --- | --- | --- | --- |
| COc1ccc2nc(Cl)c(-c3c(C#N)c(N)nc(Sc4ccc(C)cc4)c3C#N)cc2c1 | > 1000 | > 1000 | 500 (≈ 1090 µM) | 500 (≈ 1090 µM) | 500 (≈ 1090 µM) | 500 (≈ 1090 µM) | 500 (≈ 1090 µM) | 500 (≈ 1090 µM) |
| CC1(C)S[C@@H]2[C@H](NC(=O)[C@H](N)c3ccccc3)C(=O)N2[C@H]1C(=O)O [AMPICILLIN] |  |  | 100 (≈ 286 µM) | 100 (≈ 286 µM) | 100 (≈ 286 µM) | 100 (≈ 286 µM) | 250 (≈ 715 µM) | 250 (≈ 715 µM) |
| Cc1ccc(Sc2nc(N)c(C#N)c(-c3cc4ccc(C)cc4nc3Cl)c2C#N)cc1 | > 1000 | > 1000 | 200 (≈ 453 µM) | 250 (≈ 566 µM) | 200 (≈ 453 µM) | 200 (≈ 453 µM) | 200 (≈ 453 µM) | 200 (≈ 453 µM) |
| Cc1ccc2nc(Cl)c(-c3c(C#N)c(N)nc(Sc4ccc(Cl)cc4)c3C#N)cc2c1 | 500 (≈ 1080 µM) | 500 (≈ 1080 µM) | 200 (≈ 433 µM) | 100 (≈ 216 µM) | 62.5 (≈ 135 µM) | 200 (≈ 433 µM) | 250 (≈ 541 µM) | 200 (≈ 433 µM) |
| Cc1ccc(Sc2nc(N)c(C#N)c(-c3cc4cc(Cl)ccc4nc3Cl)c2C#N)cc1 | 250 (≈ 541 µM) | 500 (≈ 1080 µM) | 200 (≈ 433 µM) | 200 (≈ 433 µM) | 200 (≈ 433 µM) | 250 (≈ 541 µM) | 200 (≈ 433 µM) | 200 (≈ 433 µM) |
| Cc1ccc2nc(Cl)c(-c3c(C#N)c(N)nc(Sc4ccccc4)c3C#N)cc2c1 | > 1000 | > 1000 | 250 (≈ 584 µM) | 200 (≈ 467 µM) | 200 (≈ 467 µM) | 250 (≈ 584 µM) | 500 (≈ 1170 µM) | 500 (≈ 1170 µM) |
| COC1=CC(=O)C[C@@H](C)[C@]12Oc1c(Cl)c(OC)cc(OC)c1C2=O [GRISEOFULVIN] | 100 (≈ 283 µM) | 500 (≈ 1420 µM) |  |  |  |  |  |  |
| Cc1ccc(Sc2nc(N)c(C#N)c(-c3cc4cc(C)ccc4nc3Cl)c2C#N)cc1 | 250 (≈ 566 µM) | 500 (≈ 1130 µM) | 500 (≈ 1130 µM) | 200 (≈ 453 µM) | 250 (≈ 566 µM) | 100 (≈ 226 µM) | 500 (≈ 1130 µM) | 100 (≈ 226 µM) |
| N#Cc1c(N)nc(Sc2ccc(Cl)cc2)c(C#N)c1-c1cc2cc(Cl)ccc2nc1Cl | 200 (≈ 414 µM) | 500 (≈ 1040 µM) | 500 (≈ 1040 µM) | 250 (≈ 518 µM) | 250 (≈ 518 µM) | 500 (≈ 1040 µM) | 500 (≈ 1040 µM) | 250 (≈ 518 µM) |
| N#Cc1c(N)nc(Sc2ccccc2)c(C#N)c1-c1cc2ccccc2nc1Cl | 500 (≈ 1210 µM) | 500 (≈ 1210 µM) | 200 (≈ 483 µM) | 200 (≈ 483 µM) | 200 (≈ 483 µM) | 250 (≈ 604 µM) | 500 (≈ 1210 µM) | 250 (≈ 604 µM) |
| COc1ccc2nc(Cl)c(-c3c(C#N)c(N)nc(Sc4ccccc4)c3C#N)cc2c1 | 1000 (≈ 2250 µM) | 1000 (≈ 2250 µM) | 500 (≈ 1130 µM) | 500 (≈ 1130 µM) | 500 (≈ 1130 µM) | 250 (≈ 563 µM) | 200 (≈ 451 µM) | 250 (≈ 563 µM) |
| CCn1cc(C(=O)O)c(=O)c2cc(F)c(N3CCNCC3)cc21 [NORFLOXACIN] |  |  | 10 (≈ 31.3 µM) | 10 (≈ 31.3 µM) | 10 (≈ 31.3 µM) | 10 (≈ 31.3 µM) | 50 (≈ 157 µM) | 100 (≈ 313 µM) |
| N#Cc1c(N)nc(Sc2ccc(Cl)cc2)c(C#N)c1-c1cc2ccccc2nc1Cl | 1000 (≈ 2230 µM) | 1000 (≈ 2230 µM) | 250 (≈ 558 µM) | 150 (≈ 335 µM) | 100 (≈ 223 µM) | 250 (≈ 558 µM) | 250 (≈ 558 µM) | 250 (≈ 558 µM) |
| Cc1ccc2cc(-c3c(C#N)c(N)nc(Sc4ccccc4)c3C#N)c(Cl)nc2c1 | 1000 (≈ 2340 µM) | 1000 (≈ 2340 µM) | 250 (≈ 584 µM) | 200 (≈ 467 µM) | 100 (≈ 234 µM) | 100 (≈ 234 µM) | 200 (≈ 467 µM) | 100 (≈ 234 µM) |
| Cc1ccc2cc(-c3c(C#N)c(N)nc(Sc4ccc(Cl)cc4)c3C#N)c(Cl)nc2c1 | > 1000 | > 1000 | 500 (≈ 1080 µM) | 500 (≈ 1080 µM) | 500 (≈ 1080 µM) | 250 (≈ 541 µM) | 250 (≈ 541 µM) | 250 (≈ 541 µM) |
| COc1ccc2nc(Cl)c(-c3c(C#N)c(N)nc(Sc4ccc(Cl)cc4)c3C#N)cc2c1 | 1000 (≈ 2090 µM) | > 1000 | 200 (≈ 418 µM) | 200 (≈ 418 µM) | 200 (≈ 418 µM) | 250 (≈ 523 µM) | 200 (≈ 418 µM) | 250 (≈ 523 µM) |
| N#Cc1c(N)nc(Sc2ccccc2)c(C#N)c1-c1cc2cc(Cl)ccc2nc1Cl | 250 (≈ 558 µM) | 250 (≈ 558 µM) | 200 (≈ 446 µM) | 250 (≈ 558 µM) | 200 (≈ 446 µM) | 200 (≈ 446 µM) | 250 (≈ 558 µM) | 100 (≈ 223 µM) |
| Cc1ccc(Sc2nc(N)c(C#N)c(-c3cc4ccccc4nc3Cl)c2C#N)cc1 | > 1000 | > 1000 | 62.5 (≈ 146 µM) | 100 (≈ 234 µM) | 100 (≈ 234 µM) | 200 (≈ 467 µM) | 250 (≈ 584 µM) | 250 (≈ 584 µM) |

— ChEMBL document CHEMBL3046743, “Synthesis and in vitro antimicrobial evaluation of penta-substituted pyridine derivatives bearing the quinoline nucleus” (2012)
